# Assay results as given in US12419966B2, “In vivo radical-mediated polymerization for targeted delivery of trophic factors” (RUTGERS, THE STATE UNIVERSITY OF NEW JERSEY, priority 2017, dated 2025).
# Tested on: Rat cortical neurons
# Experiment: Rat cortical neuron cytotoxicity (MTT)
# Type: cell-based
# Details: above 500 μM
# Protocol: Rat Cortical Neuron Culture and Cellular Protection Studies (Cytotoxicity and Protection): Rat cortical neurons were isolated from a timed pregnant animal at embryonic day 18 as described in the literature via techniques commonly employed in the literature. Neurons were cultured in Neurobasal media containing 2% B27 supplement, 1% KCl, 1% penicillin/streptomycin, and 0.5% L-glutamine and seeded into 96 well plates at a density of 100,000 cells/well. […] Cellular metabolic activity was then evaluated using the Vybrant MTT assay (Life Technologies) according to the manufacturer's instructions. […] Metabolic activity was again measured using the MTT assay.
# (3-(4,5-dimethylthiazol-2-yl)-2,5-diphenyltetrazolium bromide) (MTT) was added to the cultures at 12 mM and allowed to incubate for 4 hours at 37° C. MTT was metabolized by mitochondrial activity to form an insoluble formazan product. The formazan product was solubilized by the addition of sodium dodecyl sulfate and further incubation for 4 hours. Absorbance measurements at 570 nm were collected to determine the amount of MTT that was metabolized by the culture and viability was reported as a percentage of MTT metabolized by uninjured control cultures.
smiles,measurement,value
O=C1O[C@H]([C@@H](O)CO)C(O)=C1O [ascorbic acid],cellular activity of rat cortical neurons,decreases observed
